As usually defined, the inhibition is the drop in the measured response relative to a control, in per cent.

Active and inactive are the calls of the source. The rule behind the calls is not given here.

The source of these data is ChEMBL document CHEMBL6109106, “Rational design, synthesis and anti-inflammatory activity of 6-substituted dihydrobenzophenanthridine derivatives” (Bioorg Med Chem, 2025).

Series [1] in a line: (§1) Cytotoxicity against mouse RAW264.7 cells assessed as survival rate at 20 uM incubated for 24 hrs by MTT assay (reference value: 100 %). The format is toxicity, cell-based. Particulars: RAW264.7 cells, read-out: Survival. (Tetrazolium dyes change colour on reduction, which living cells bring about.)
The subject of series [2] is RAW264.7. As to the kind of experiment: Anti-inflammatory activity in LPS-induced mouse RAW264.7 cells assessed as NO emission at 20 uM preincubated with compound for 1 hrs followed by LPS stimulation and measured after 24 hrs by Griess reagent based analysis (reference value: 14.05 +/- 1.19 microM). The class given is functional. As to conditions: time 25 hrs. (Nitrite, measured by Griess reagent, commonly stands in for NO production.)

The test system of series [3] is RAW264.7. As to the kind of experiment: Anti-inflammatory activity in LPS-induced mouse RAW264.7 cells assessed as inhibition of NO release at 20 uM preincubated with compound for 1 hrs followed by LPS stimulation and measured after 24 hrs by Griess reagent based analysis (reference value: 0 %). The class given is functional. Particulars: for inhibition at 20 µM: Mus musculus; for inhibition (INH): time 25 hrs.

Series [4] deals with Mus musculus. As to the kind of experiment: Anti-inflammatory activity in DSS-induced acute colitis male C57BL/6 mouse model assessed as complete colonic mucosa with crypts at 200 mg/kg, po administered for 7 days by H and E staining based analysis. The class given is functional, organism-based. Particulars: time 7.0 day.
Series [5] concerns Mus musculus. Nature of the series: Anti-inflammatory activity in DSS-induced acute colitis male C57BL/6 mouse model assessed as reduction in infiltration of inflammatory cells in colon at 200 mg/kg, po administered for 7 days by H and E staining based analysis. The format is functional, organism-based. Particulars: time 7.0 day.
Series [6] concerns RAW264.7. Described as §1. The format is toxicity, cell-based. As to conditions: raw264.7, 24 h, 20 µM.
Series [7] relates to RAW264.7. Nature of the series: Cytotoxicity against mouse RAW264.7 cells assessed as reduction in cell viability up to 160 uM incubated for 24 hrs by MTT assay. As to conditions: raw264.7, 24 h. The format is toxicity, cell-based.
The subject of series [8] is RAW264.7. Nature of the series: Anti-inflammatory activity in LPS-induced mouse RAW264.7 cells assessed as reduction in IL-6 level at >40 uM preincubated with compound for 1 hrs followed by LPS stimulation and measured after 24 hrs by ELISA. The format is functional, cell-based. Particulars: time 25.0 hrs. In general terms: In an ELISA, binding on a coated surface is turned into a signal by an enzyme label.

Series [9] has as its system RAW264.7. As to the kind of experiment: Anti-inflammatory activity in LPS-induced mouse RAW264.7 cells assessed as reduction in TNFalpha level at >20 uM preincubated with compound for 1 hrs followed by LPS stimulation and measured after 24 hrs by ELISA. The format is functional, cell-based. Particulars: time 25.0 hrs.
Series [10] relates to RAW264.7. Nature of the series: Anti-inflammatory activity in LPS-induced mouse RAW264.7 cells assessed as reduction in IL-6 level preincubated with compound for 1 hrs followed by LPS stimulation and measured after 24 hrs by ELISA. The format is functional, cell-based. Particulars: dose 10-160 µM, time 25.0 hrs.
Series [11] relates to RAW264.7. As to the kind of experiment: Anti-inflammatory activity in LPS-induced mouse RAW264.7 cells assessed as reduction in TNFalpha level preincubated with compound for 1 hrs followed by LPS stimulation and measured after 24 hrs by ELISA. The format is functional, cell-based. Particulars: dose 10-160 µM, time 25.0 hrs.
Series [12] concerns Mus musculus. Nature of the series: Anti-inflammatory activity in DSS-induced acute colitis male C57BL/6 mouse model assessed as increase in intestine length at 20 to 80 mg/kg, po administered for 7 days. The format is functional, organism-based. As to conditions: dose 20-80 mg/kg, time 7.0 day.
Series [13] deals with Mus musculus. As to the kind of experiment: Anti-inflammatory activity in DSS-induced acute colitis male C57BL/6 mouse model assessed as complete colonic mucosa with crypts administered orally for 7 days by H and E staining based analysis. As to conditions: dose 20-80 mg/kg, route po, time 7.0 day. The format is functional, organism-based.
For series [14], the system named is Mus musculus. As to the kind of experiment: Anti-inflammatory activity in DSS-induced acute colitis male C57BL/6 mouse model assessed as reduction in infiltration of inflammatory cells in colon administered orally for 7 days by H and E staining based analysis. As to conditions: dose 20-80 mg/kg, route po, time 7.0 day. The class given is functional, organism-based.

The test system of series [15] is Mus musculus. Nature of the series: Anti-inflammatory activity in DSS-induced acute colitis male C57BL/6 mouse model assessed as decrease in TNF-alpha expression level in colon at 20 to 80 mg/kg, po administered for 7 days by immunohistochemical staining based analysis. As to conditions: dose 20-80 mg/kg, time 7.0 day. The format is functional, organism-based.
Series [16] concerns Mus musculus. As to the kind of experiment: Anti-inflammatory activity in DSS-induced acute colitis male C57BL/6 mouse model assessed as decrease in IL6 expression level in colon at 20 to 80 mg/kg, po administered for 7 days by immunohistochemical staining based analysis. The class given is functional, organism-based. Particulars: dose 20-80 mg/kg, time 7.0 day.
The subject of series [17] is Mus musculus. As to the kind of experiment: Anti-inflammatory activity in DSS-induced acute colitis male C57BL/6 mouse model assessed as decrease in IL1beta expression level in colon at 20 to 80 mg/kg, po administered for 7 days by immunohistochemical staining based analysis. The format is functional, organism-based. Particulars: dose 20-80 mg/kg, time 7.0 day.

For the compound `CCCCNC(=O)CC1c2c(ccc(OC)c2OC)-c2ccc3cc4c(cc3c2N1C)OCO4` (centres undefined), the viability at 24 h, 20 µM in [1] amounted to 92.1%. Moreover, the Activity in [2] stood at 8.22 µM. The inhibition at 20 µM in [3] (RAW264.7, 25 h) worked out at 41.1%.

For `CN1c2c(ccc3cc4c(cc23)OCO4)-c2ccc3c(c2C1CCO)OCO3` (centres undefined), the viability at 24 h, 20 µM in series [1] was 160%. In addition, the Activity in series [2] is 11.57 µM. For the same compound, the inhibition at 20 µM in [3] (RAW264.7, 25 h) amounted to 10.1%.

Regarding `COC(=O)C(C)C1c2c(ccc(OC)c2OC)-c2ccc3cc4c(cc3c2N1C)OCO4` (centres undefined), in series [1], the viability at 24 h, 20 µM turned out to be 101%. In addition, the Activity in [2] was 11.2 µM. In addition, the inhibition at 20 µM in series [3] (RAW264.7, 25 h) turned out to be 19%.

`CCC(C)C1c2c(ccc3c2OCO3)-c2ccc3cc4c(cc3c2N1C)OCO4` (centres undefined): the viability at 24 h, 20 µM in series [1] came out at 114%. Also, in [2], the Activity turned out to be 13.15 µM. Besides, the inhibition at 20 µM in series [3] (RAW264.7, 25 h) is 5.57%.

For the compound `C=C(CC1c2c(ccc3c2OCO3)-c2ccc3cc4c(cc3c2N1C)OCO4)C(=O)OC` (centres undefined), the viability at 24 h, 20 µM in series [1] stood at 111%. The Activity in series [2] stood at 12.66 µM. The inhibition at 20 µM in [3] (RAW264.7, 25 h) stood at 9.4%.

In the case of `COc1ccc2c(c1OC)CN(C)c1c-2ccc2cc3c(cc12)OCO3` [DIHYDROCHELERYTHRINE], in series [1], the viability at 24 h, 20 µM came to 94.3%. In addition, the Activity in [2] amounted to 9.91 µM. In addition, the inhibition at 20 µM in series [3] (RAW264.7, 25 h) stood at 28.9%.

Regarding `CN1Cc2c(ccc3c2OCO3)-c2ccc3cc4c(cc3c21)OCO4` [DIHYDROSANGUINARINE], the viability at 24 h, 20 µM in [1] was found to be 88.7%. Besides, the Activity in series [2] worked out at 10.36 µM. Besides, the inhibition at 20 µM in series [3] (RAW264.7, time 25 hrs) amounted to 26.1%.

Take `COC(=O)CCC1c2c(ccc3c2OCO3)-c2ccc3cc4c(cc3c2N1C)OCO4` (centres undefined): the viability at 24 h, 20 µM in series [1] was determined as 110%. In addition, the Activity in series [2] came to 10.94 µM. Further, in [3] (RAW264.7, 25 h), the inhibition at 20 µM is 21.4%.

As to `CN1c2c(ccc3cc4c(cc23)OCO4)-c2ccc3c(c2C1CC(=O)Nc1ccccc1)OCO3` (centres undefined), the viability at 24 h, 20 µM in series [1] was determined as 125%. Besides, the Activity in series [2] came out at 9.28 µM. Further, in series [3] (RAW264.7, 25 h), the inhibition at 20 µM is 33.1%.

In the case of `Nc1ccc(O)c(C(=O)O)c1`, the result in [4] and in [5] was Active.

In the case of `CN1c2c(ccc3cc4c(cc23)OCO4)-c2ccc3c(c2C1CC(=O)[O-])OCO3.[Na+]` (centres undefined), the viability at 24 h, 20 µM in series [1] amounted to 91.8%. Also, the Activity in [2] is 11.66 µM. In addition, in series [3] (RAW264.7, 25 h), the inhibition at 20 µM came to 16.1%.

For the compound `CCCCNC(=O)CC1c2c(ccc3c2OCO3)-c2ccc3cc4c(cc3c2N1C)OCO4` (centres undefined), the viability at 24 h, 20 µM in series [1] was 101%. Besides, the Activity in series [2] is 10.48 µM. The inhibition at 20 µM in [3] (RAW264.7, 25 h) came to 24.5%.

Turning to `COC(=O)CCC1c2c(ccc(OC)c2OC)-c2ccc3cc4c(cc3c2N1C)OCO4` (centres undefined), the viability at 24 h, 20 µM in series [1] came to 97.7%. Moreover, the Activity in series [2] came to 10.11 µM. The inhibition at 20 µM in series [3] (RAW264.7, 25 h) is 27.5%.

On to `C=C(CC1c2c(ccc(OC)c2OC)-c2ccc3cc4c(cc3c2N1C)OCO4)C(=O)OC` (centres undefined), for which the viability at 24 h, 20 µM in series [1] was 130%. In addition, the Activity in series [2] is 10.14 µM. Besides, the inhibition at 20 µM in [3] (RAW264.7, 25 h) was found to be 27.2%.

Consider `COc1ccc2c(c1OC)C(CC(=O)O)N(C)c1c-2ccc2cc3c(cc12)OCO3` (centres undefined), for which, in [6], the Survival is listed as 82.98%. Moreover, in series [2], the Activity stood at 9.1 µM. For the same compound, the “inhibition (INH)” value in series [3] is reported as 34.87%.

On to `CCCOC(=O)C(C)C1c2c(ccc(OC)c2OC)-c2ccc3cc4c(cc3c2N1C)OCO4` (centres undefined), for which the viability at 24 h, 20 µM in [1] came out at 122%. Further, in [2], the Activity stood at 12.5 µM. The inhibition at 20 µM in [3] (RAW264.7, 25 h) was found to be 10.3%.

As for `CCOC(=O)CC1c2c(ccc(OC)c2OC)-c2ccc3cc4c(cc3c2N1C)OCO4` (centres undefined), in series [1], the viability at 24 h, 20 µM was 94.4%. The Activity in series [2] came to 9.56 µM. Further, the inhibition at 20 µM in series [3] (RAW264.7, 25 h) was 31.3%.

Regarding `COc1ccc2c(c1OC)C(CC(=O)[O-])N(C)c1c-2ccc2cc3c(cc12)OCO3.[Na+]` (centres undefined), the viability at 24 h, 20 µM in series [1] worked out at 98.8%. Besides, the Activity in series [2] came to 12.98 µM. Besides, in series [3], the “inhibition (INH)” value is 6.77%.

For `CCC(C)C1c2c(ccc(OC)c2OC)-c2ccc3cc4c(cc3c2N1C)OCO4` (centres undefined), in [1], the viability at 24 h, 20 µM amounted to 91.3%. In series [2], the Activity is 11.52 µM. In addition, in [3] (RAW264.7, 25 h), the inhibition at 20 µM was 17%.

As for `CN1c2c(ccc3cc4c(cc23)OCO4)-c2ccc3c(c2C1CC(=O)O)OCO3` (centres undefined), the Survival in [6] turned out to be 93.19%. In series [2], the Activity is 9.55 µM. Moreover, the “inhibition (INH)” value in series [3] was determined as 31.45%.

On to `COc1ccc2c(c1OC)C(CCO)N(C)c1c-2ccc2cc3c(cc12)OCO3` (centres undefined), for which the viability at 24 h, 20 µM in series [1] amounted to 103%. In addition, the Activity in [2] was 9.75 µM. Besides, the inhibition at 20 µM in series [3] (RAW264.7, 25 h) was 30.1%.

Regarding `COc1ccc2c(c1OC)C(CC(=O)Nc1ccccc1)N(C)c1c-2ccc2cc3c(cc12)OCO3` (centres undefined), the viability at 24 h, 20 µM in series [1] worked out at 136%. In addition, the Activity in series [2] is 8.16 µM; in [7], “Non-toxic”; in [10], “Dose-dependent-effect”; in [11] it was “Dose-dependent-effect”; in series [13], “Dose-dependent-effect”; in series [14], “Dose-dependent-effect”. In addition, the inhibition at 20 µM in [3] (RAW264.7, 25 h) is 41.6%. Further, the outcome in [8], in [9], in series [12], in series [15], in [16] and in series [17] was Active.

On to `CCOC(=O)CC1c2c(ccc3c2OCO3)-c2ccc3cc4c(cc3c2N1C)OCO4` (centres undefined), for which the viability at 24 h, 20 µM in series [1] worked out at 109%. Also, the Activity in series [2] was 10.5 µM. In addition, the inhibition at 20 µM in series [3] (RAW264.7, 25 h) is 24.5%.
